A short description of one data set: in vitro. To be noted: monkey, vero cells, MTC (minimum drug concentration causing any cytotoxicity).
Data set [1] deals with Human Immunodificiency Virus (HIV-1). Description: HIV-1 antigen inhibition in H9 cells. To be noted: Human immunodeficiency virus 1, HIV-1, H9 cells; for IC50: HIV antigen levels. Type of data set: cell-based, HIV-1 (HTLV-IIIB). The protocol:
Uninfected H9 cells at 4×10^5 viable cells/ml were infected with approximately 100 viral infectious units (ifu) for 2 hrs at 37° C. The viral infectious dose (ifu) was determined by the tissue culture infectious dose (TCID50) method for each stock of HIV-1 (HTLV-IIIB) and HIV-2. Cells were washed three times to remove residual virus, then resuspended in RPMI-1640 growth medium containing test compound at various concentrations, then transferred to 24 well tissue culture plates and grown at 5% CO2 at 37° C. Infected cells in media containing no drug were run simultaneously as a control. Aliquots of culture supernatants were removed at 4, 6 and 10 days and monitored for HIV antigen levels by the Abbott HIV 1 antigen enzyme immunoassay (HIVAG-1). Cell viability was also determined at these time points and cells were refed with media containing test compound (except for control wells). Anti-HIV activity is reported as the concentration of compound causing a 50% inhibition (IC50) in HIV antigen levels versus infected cells without test compound.

Data set [2] relates to Human Immunodeficiency Virus (HIV-1). Description: anti-HIV-1 protection of ATH8 cells (method of Mitsuya and Broder). The data set is classed as cell-based. To be noted: Human immunodeficiency virus 1, ATH-8, HIV-1, ATH8 cells, read-out: Protective Effect. The source says:
(§1) The method of Mitsuya and Broder (AIDS: Modern Concepts and Therapeutic Challenges; Broder, S. ED.; Marcel Dekker, Inc.; New York, 1987; Chapter 18) was used to determine the in vitro anti-HIV-1 and anti-HIV-2 activity in ATH8 cells of some compounds of the invention. The results of the test are expressed as the percentage of ATH8 cells that were protected from the cytopathogenic effects of HIV at various concentrations of the compound of the invention.

The subject of another data set is Epstein-Barr virus (EBV). The experiment in a line: EBV genome copies in virus producing cells (P3HR-1). Type of data set: cell-based. To be noted: P3HR-1 cells, 14 days, control 214. The protocol: Virus producing cells (P3HR-1) were exposed to test compound for 14 days and EBV genome copies per cell were determined by EBV specific cRNA DNA hybridization (Lin, et al., J. Virology 50 50-55 (1984). The results of this test are presented in Table 7.

Data set [3] concerns Human Immunodeficiency Virus (HIV-2). The experiment in a line: anti-HIV-2 protection of ATH8 cells (method of Mitsuya and Broder). The data set is classed as cell-based. To be noted: ATH-8, HIV-2, ATH8 cells, read-out: Protective Effect.
Text: as §1

In data set [4] the test system is Human Immunodificiency Virus (HIV-1). Description: inhibition of HIV-1 replication in human PBMC (RT activity). To be noted: Human immunodeficiency virus 1; HIV-1, PBMC, median-effect method. Type of data set: cell-based. The method, then:
Human peripheral blood mononuclear cells (PBMC) from healthy HIV-1 seronegative and hepatitis B virus seroneqative donors were isolated by Ficoll-Hypague discontinuous gradient centrifugation at 1,000×g for 30 minutes, washed twice in phosphate buffered saline (pH 7.2; PBS), and pelleted at 300×g for 10 minutes. Before infection, the cells were stimulated by phytohemagglutinin (PHA) at a concentration of 16.7 ug/ml for three days in RPMI 1640 medium supplemented with 15% heat-inactivated fetal calf serum, 1.5 mM L-glutamine, penicillin (100 U/ml), streptomycin (100 ug/ml) and 4 mM sodium bicarbonate buffer.
Uninfected PHA stimulated human PBMC were uniformly distributed among 25 cm^2 flasks to give a 5 ml suspension containing about 2×10^6 cells/ml. Suitable dilutions of virus were added to infect the cultures. The mean reverse transcriptase (RT) activity of the inocula was 60,000 dpm RT activity/10^6 cells. […]
The RT assay was perfromed in 96-well microtiter plates as described by Spira, et al. (J. Clin. Microbiol. 25 97 (1987)). […] Four ml of scintillation fluid (Econofluor, NEN Research Products, Boston, Ma.) were added and the amount of radioactivity in each sample was determined using a Packard Tri Carb liquid scintillation analyzer (model 2,000CA). […]

`Nc1nc2c(ncn2C2CC(CO)C2CO)c(=O)[nH]1` (stereo not shown) [Example 1I, 9-(2',3'-Bis(hydroxymethyl)cyclobutyl)guanine] displayed an MCC in “in vitro” of 320 µg/mL. Also, the inhibition at 0.312 µM in data set [1] (0.312 uM) is 0%. The molecule further returned an inhibition at 0.625 µM in data set [1] of 19%. Moreover, the inhibition at 1.25 µM in data set [1] (1.25 uM) is 63%. In data set [1], this molecule returned an inhibition at 2.5 µM of 75%. Besides, the inhibition at 10 µM in data set [1] amounted to 88%; in data set [2], 90%; in data set [3] it was 65%. 1100 nM corresponded to half-maximal inhibition in data set [1] (IC50). Besides, the inhibition at 1 µM in data set [2] turned out to be 51%; in data set [3], 24%. Moreover, the EBV genome copies/cell with Epstein-Barr virus (EBV) (0.01 uM) was found to be 223 EBV genome copies/cell; in the data set with Epstein-Barr virus (EBV) (0.10 uM), 181 EBV genome copies/cell; in the data set on Epstein-Barr virus (EBV) (1.00 uM), 40 EBV genome copies/cell; with Epstein-Barr virus (EBV) (5.00 uM), 12 EBV genome copies/cell; in the data set on Epstein-Barr virus (EBV) (10.00 uM) it was 10 EBV genome copies/cell. Moreover, the EC50 (as a rule, the concentration that produces a half-maximal response) in data set [4] was 980 nM.
On to `Nc1ncnc2c1ncn2C1CC(CO)C1CO` (stereo not shown) [Example 4C, 9-(2',3'-Bis(hydroxymethyl)cyclobutyl)adenine], for which, in data set [1], the inhibition at 0.625 µM turned out to be 0%; the inhibition at 2.5 µM was found to be 62%; the inhibition at 10 µM is 98%; the IC50 – broadly, the concentration that gives 50% inhibition – is 2100 nM. Further, the inhibition at 5 µM in data set [1] (5 uM) was 96%. Further, in data set [2], the inhibition at 1 µM was 48% and the inhibition at 10 µM worked out at 63%. Besides, the inhibition at 100 µM in data set [2] (100 uM) was 76%. For the same molecule, in data set [3], the inhibition at 1 µM was 33% and the inhibition at 10 µM worked out at 70%. This molecule had an EC50 in data set [4] of 960 nM.

Source of the values: US5153352A, “Process for preparation of intermediates of carbocyclic nucleoside analogs” (priority 1990, dated 1992).
